According to PMC9600550, “The pH Robustness of Bacterial Sensing” (mBio, 2022):
Where “and” joins values, the source holds several entries; their conditions need not be identical. Equal entries are not always repeated. Where two headings read alike, the source gives them in different places.

How the values were obtained:
[1] = molecular target: TodS-Nter (Pseudomonas putida, UniProt E0X9C7); test: biochemical
Experimental: (§1) To assess the pH dependence of ligand-binding, freshly purified proteins were dialyzed overnight into the buffers described in Table S1 and submitted to microcalorimetric titration.
(§2) Freshly purified proteins were dialyzed into the buffers specified in Table S1 and introduced into the sample cell of an VP-microcalorimeter (MicroCal). Proteins at 15 to 100 μM were titrated with 0.25 to 10 mM ligand solutions that were made up in dialysis buffer. For pH-active ligands, the pH of the ligand solutions was adjusted to that of the dialysis buffer by the addition of concentrated HCl or NaOH. Titrations of MBP and McpV-LBD were conducted at 15°C to favor endothermic contributions to binding heats, whereas the remaining titrations were carried out at 25°C. Raw titration data were integrated, corrected for ligand-dilution heats and normalized with the ligand concentrations. Resulting data were fitted with the “One Binding site model” of the MicroCal version of ORIGIN. Provided are the dissociation constants derived from one experiment and the error of curve-fitting.

[2] = molecular target: T1, TtgV (Pseudomonas putida, UniProt Q93PU6); test: ITC titration of TtgV with benzonitrile at different pH; format: binding, P. putida DOT-T1E; details: 25°C
T1 construct: made in house

[3] = molecular target: T2, PctA-LBD (Pseudomonas aeruginosa, UniProt G3XD24); test: ITC titration of PctA-LBD with L-alanine at different pH; format: binding, P. aeruginosa PAO1
T2 construct: pET28b(+) derivative containing a DNA fragment encoding the PctA-LBD; made in house

[4] = tested on: P. aeruginosa PAO1; test: Quantitative capillary chemotaxis assay at different pH; format: cell-based; details: 1 mM ligand
Experimental: We evaluated the effect of pH on P. aeruginosa chemotaxis to L-Ala, a ligand of the PctA chemoreceptor, using the quantitative capillary chemotaxis assay. Prior to performing these assays, we evaluated cell viability and motility at different pH values. We grew cells in minimal medium to an OD660 of 0.4, washed twice with chemotaxis buffer at the different pH values, resuspended in the corresponding buffer, and incubated for 1 h. Cells were then plated out to assess cell viability. […] We then determined the effect of different pH on the chemotactic responses to L-Ala.
Chemotaxis assays were performed as previously described ([79]) with some modifications. When cultures reached an OD660 of 0.4, the cells were gently washed twice with chemotaxis buffer at different pH and then resuspended in fresh buffer. The chemoeffector solutions were prepared in the corresponding chemotaxis buffer. Data are the means and standard deviations of at least 3 biological replicates conducted in triplicate.

[5] = molecular target: T3, Tar-LBD (Escherichia coli, UniProt P07017); test: ITC titration of Tar-LBD with L-aspartate at different pH; format: binding, E. coli K12; details: for pH range of binding: defined as binding with a KD below 1 mM
T3 construct: A DNA fragment encoding the Tar-LBD (amino acids 31 to 188) was amplified from genomic DNA of E. coli K12; His tag (from pET28b(+)) (N); made in house; host or cells: Escherichia coli BL21(DE3)

[6] = molecular target: T4, Tar (Escherichia coli, UniProt P07017); test: FRET (CheY-YFP/CheZ-CFP) chemotaxis pathway response, Tar as sole chemoreceptor; format: cell-based; details: E. coli VS181 with Tar as sole chemoreceptor, read-out: EC50 (half-maximal effective concentration), FRET titration
T4 construct: expressed in transfected cells; host or cells: receptorless E. coli VS181, plasmid pSB13 (pKG116 derivative)

[7] = molecular target: T3, Tar-LBD; test: Sedimentation-velocity analytical ultracentrifugation of Tar-LBD with and without L-Asp; set-up: species or system E. coli K12; details: 1 mM ligand; all pH values analysed (3.5, 5.0, 7.0, 10.0)
Experimental: To estimate the sedimentation coefficient expected for the monomeric and dimeric states of the Tar-LBD, a hydrodynamic model was generated from the 3D structure of the protein (pdb ID 4Z9H) ([45]). Using the HYDROPRO software, the theoretical sedimentation coefficients were s(20,w) = 2.12 S for the monomer and 3.54 S for the dimer (Fig. 5A).
Experiments were conducted on a ProteomeLab XL-I instrument (Beckman-Coulter) equipped with interference and absorbance optics. Sedimentation was carried out at 42,000 rpm and 10°C in an eight-hole Ti-50 Beckman Coulter rotor and monitored with absorbance optics at 280 nm in continuous mode. Samples were dialyzed into 4 different buffers, namely, 10 mM citric acid/sodium citrate, pH 3.5; 10 mM citric acid/sodium citrate, pH 5.0; 3 mM Tris, 3 mM PIPES, 3 mM MES, pH 7.0, and 10 mM Na2CO3/NaHCO3, pH 10.0. […] Density and viscosity of the buffer were calculated with [sequence] […] To assign the sedimentation coefficient observed to the corresponding oligomeric species, theoretical s values were calculated via HYDROPRO ([92]) hydrodynamic modeling software, applied to the 3D structure of the Tar-LBD monomer and dimer (pdb ID 4H9Z), with a 2.9 Å radius for the primary elements.

[8] = molecular target: T3, Tar-LBD; test: Differential scanning calorimetry of Tar-LBD thermal unfolding in presence of L-Asp; set-up: species or system E. coli K12; details: 1 mM L-Asp
Experimental: Differential scanning calorimetry (DSC) provides information on the thermodynamics of protein unfolding. At 5.0, the optimal pH for binding and dimerization, Tar-LBD formed a sharp peak with or without 1 mM L-Asp (Fig. 5B and C, and Table S3), indicative of highly cooperative unfolding. […] We thus conclude that at all pH values tested, at least some of the protein was present in the dimeric form and capable of binding ligand.
Experiments were conducted on a MicroCal DSC-PEAQ system (Malvern Panalytical) at a scan rate of 90°C/h over a temperature range of 10°C to 85°C. Calorimetric cells (operating volume 0.134 mL) were kept under pressure (60 lb/in^2) to prevent sample degassing. Buffer-buffer baselines obtained after each assay were subtracted from the signal obtained from each of the samples. Protein samples were prepared as detailed in the “Analytical ultracentrifugation” section. The calorimetric enthalpies were estimated by integration of the transition peaks after subtracting the buffer-buffer baselines and fitting the curves to a “Non-two-state” model using MicroCal DSC-PEAQ software. For graphical clarity of the plots, baselines were manually curated and raw data were smoothed with the Savitzky-Golay algorithm.

[9] = molecular target: T5, PcaY_PP-LBD (Pseudomonas putida, UniProt Q88JK6); test: ITC titration of PcaY_PP-LBD with quinate at different pH; format: binding, P. putida KT2440
T5 construct: made in house
Experimental: as §1, §2

[10] = molecular target: AdmX-LBD (Serratia plymuthica, UniProt P0DV33); test: ITC titration of AdmX-LBD with indole-3-pyruvic acid at different pH; format: binding, Serratia plymuthica A153
[11] = molecular target: (UniProt A0A4D6XHN3); test: ITC titration of E6B08_RS28125 with L-ornithine at different pH; format: binding, P. putida 1290; details: 25°C, pH 9.0, read-out: KD at pH optimum
[12] = molecular target: McpV-LBD (Sinorhizobium meliloti, UniProt Q7APD1); test: ITC titration of McpV-LBD with propionate at different pH; format: binding, Sinorhizobium meliloti RU11/001
[13] = molecular target: T6, McpQ-LBD (Pseudomonas putida, UniProt Q88D09); test: ITC titration of McpQ-LBD with citrate at different pH; format: binding, P. putida KT2440; details: 25°C
T6 construct: pET28b(+) derivative containing a DNA fragment encoding the McpQ-LBD; made in house

[14] = molecular target: T7, CtpM-LBD (Pseudomonas aeruginosa, UniProt Q9I0I6); test: ITC titration of CtpM-LBD with L-malate at different pH; format: binding, P. aeruginosa PAO1
T7 construct: containing a DNA fragment encoding the CtpM (PA2652)-LBD; made in house

[15] = molecular target: T8, McpS-LBD (Pseudomonas putida, UniProt Q88E10); test: ITC titration of McpS-LBD with L-malate at different pH; format: binding, P. putida KT2440; details: 25°C
T8 construct: pET28b(+) derivative containing a DNA fragment encoding the McpS-LBD; made in house

[16] = molecular target: T9, McpS-Tar (UniProt P07017+Q88E10); test: FRET (CheY-YFP/CheZ-CFP) chemotaxis pathway response, McpS-Tar hybrid as sole chemoreceptor; format: cell-based; details: E. coli VS181 with McpS-Tar as sole chemoreceptor, read-out: EC50 (half-maximal effective concentration), FRET titration
T9 construct: 295]-Tar[200-553] receptor; expressed in transfected cells; host or cells: receptorless E. coli VS181, plasmid pSB10 (pKG116 derivative)

[17] = molecular target: T10, McpH-LBD (Pseudomonas putida, UniProt Q88R14); test: ITC titration of McpH-LBD with adenine at different pH; format: binding, P. putida KT2440; details: 25°C
T10 construct: pET28b(+) derivative containing a DNA fragment encoding the McpH-LBD; made in house

[18] = molecular target: T11, MBP (Escherichia coli, UniProt P0AEX9); test: ITC titration of maltose-binding protein (MBP) with D-maltose at different pH; set-up: species or system E. coli K12
T11 construct: His tag (from pET28b(+)) (N); made in house; host or cells: Escherichia coli BL21(DE3)

[19] = molecular target: McpU-LBD (Pseudomonas putida, UniProt Q88NI1); test: biochemical
Experimental: as §1, §2

[20] = molecular target: the molecule itself; test: AUC; sedimentation velocity with 1 mM L-Asp, 35 uM protein, pH 3.5, 5.0, 7.0 and 10.0, 10°C, 42,000 rpm; monomer to dimer
[21] = ITC, 25°C, defined as binding with a KD below 1 mM
[22] = defined as binding with a KD below 1 mM
[23] = pH 6.0, read-out: KD at pH optimum
[24] = 25°C, defined as binding with a KD below 1 mM
[25] = 15°C, defined as binding with a KD below 1 mM

T7 sequence (Q9I0I6 33-205): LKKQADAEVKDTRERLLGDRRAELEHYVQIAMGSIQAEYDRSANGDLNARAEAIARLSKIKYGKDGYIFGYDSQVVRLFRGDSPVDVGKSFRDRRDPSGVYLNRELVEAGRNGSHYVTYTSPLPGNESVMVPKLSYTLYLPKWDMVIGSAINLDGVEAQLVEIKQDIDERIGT
T8 sequence (Q88E10 41-283): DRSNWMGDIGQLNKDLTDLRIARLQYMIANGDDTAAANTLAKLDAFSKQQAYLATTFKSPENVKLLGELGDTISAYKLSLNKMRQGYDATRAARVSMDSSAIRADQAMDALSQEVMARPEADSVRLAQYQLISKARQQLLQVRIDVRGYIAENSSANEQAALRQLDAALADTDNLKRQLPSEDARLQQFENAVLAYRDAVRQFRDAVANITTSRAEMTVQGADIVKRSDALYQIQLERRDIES
T10 sequence (Q88R14 51-276): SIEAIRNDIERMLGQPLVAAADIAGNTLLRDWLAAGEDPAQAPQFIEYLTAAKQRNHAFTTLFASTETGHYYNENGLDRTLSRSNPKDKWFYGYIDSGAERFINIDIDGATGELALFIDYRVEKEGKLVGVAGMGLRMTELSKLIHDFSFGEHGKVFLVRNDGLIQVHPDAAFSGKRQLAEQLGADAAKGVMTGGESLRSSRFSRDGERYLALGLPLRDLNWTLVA
T2 sequence (G3XD24 32-276): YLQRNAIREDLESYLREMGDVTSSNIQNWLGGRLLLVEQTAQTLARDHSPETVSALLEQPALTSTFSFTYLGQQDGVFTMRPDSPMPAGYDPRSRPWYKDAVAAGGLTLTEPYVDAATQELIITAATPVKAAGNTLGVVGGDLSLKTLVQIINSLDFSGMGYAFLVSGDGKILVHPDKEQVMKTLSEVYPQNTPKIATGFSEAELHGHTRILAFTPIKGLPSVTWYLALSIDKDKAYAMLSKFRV
Sequence of TodS-Nter (E0X9C7 1-584): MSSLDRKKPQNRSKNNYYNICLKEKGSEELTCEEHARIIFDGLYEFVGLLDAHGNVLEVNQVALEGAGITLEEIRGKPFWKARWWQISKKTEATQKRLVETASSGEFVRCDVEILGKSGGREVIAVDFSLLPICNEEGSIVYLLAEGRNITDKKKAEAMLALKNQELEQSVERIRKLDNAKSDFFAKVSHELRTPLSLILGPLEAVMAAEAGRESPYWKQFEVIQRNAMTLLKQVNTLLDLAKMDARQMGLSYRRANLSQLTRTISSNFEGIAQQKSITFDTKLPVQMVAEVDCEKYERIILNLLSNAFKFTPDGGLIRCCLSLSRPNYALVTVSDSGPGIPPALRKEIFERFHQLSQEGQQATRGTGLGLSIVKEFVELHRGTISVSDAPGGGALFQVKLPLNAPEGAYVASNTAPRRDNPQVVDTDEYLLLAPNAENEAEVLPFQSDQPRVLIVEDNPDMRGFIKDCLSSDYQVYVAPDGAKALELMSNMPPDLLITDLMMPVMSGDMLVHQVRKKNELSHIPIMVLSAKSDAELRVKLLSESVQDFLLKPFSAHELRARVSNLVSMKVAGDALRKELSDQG
T5 sequence (Q88JK6 44-196): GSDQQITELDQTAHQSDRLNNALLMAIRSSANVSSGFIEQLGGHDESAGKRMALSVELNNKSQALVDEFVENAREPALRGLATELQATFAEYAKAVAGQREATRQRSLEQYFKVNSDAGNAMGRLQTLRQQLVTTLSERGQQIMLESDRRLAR
T9 sequence (Q88E10+P07017 fused): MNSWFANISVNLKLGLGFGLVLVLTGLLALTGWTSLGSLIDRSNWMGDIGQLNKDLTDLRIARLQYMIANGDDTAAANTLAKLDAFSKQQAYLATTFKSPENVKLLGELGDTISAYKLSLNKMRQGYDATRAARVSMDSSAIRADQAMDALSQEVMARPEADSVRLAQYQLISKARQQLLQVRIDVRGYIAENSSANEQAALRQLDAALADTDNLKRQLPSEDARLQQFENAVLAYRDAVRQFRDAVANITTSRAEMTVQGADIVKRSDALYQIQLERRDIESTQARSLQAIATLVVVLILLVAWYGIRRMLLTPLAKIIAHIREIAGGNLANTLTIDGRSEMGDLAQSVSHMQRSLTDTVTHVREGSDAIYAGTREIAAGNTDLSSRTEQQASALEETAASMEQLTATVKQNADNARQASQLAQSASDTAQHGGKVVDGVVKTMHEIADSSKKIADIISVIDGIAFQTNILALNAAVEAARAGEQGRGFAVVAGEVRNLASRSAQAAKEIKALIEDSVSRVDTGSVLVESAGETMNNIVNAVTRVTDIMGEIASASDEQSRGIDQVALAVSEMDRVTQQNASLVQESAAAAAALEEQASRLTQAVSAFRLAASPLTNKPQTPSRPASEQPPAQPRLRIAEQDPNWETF
Sequence of McpV-LBD (Q7APD1 entry or part of it): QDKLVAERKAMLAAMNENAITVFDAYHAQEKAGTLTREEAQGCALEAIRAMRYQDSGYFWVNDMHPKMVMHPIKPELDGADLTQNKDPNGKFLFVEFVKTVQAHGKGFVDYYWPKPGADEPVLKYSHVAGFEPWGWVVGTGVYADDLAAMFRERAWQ
Sequence of AdmX-LBD (P0DV33 91-304): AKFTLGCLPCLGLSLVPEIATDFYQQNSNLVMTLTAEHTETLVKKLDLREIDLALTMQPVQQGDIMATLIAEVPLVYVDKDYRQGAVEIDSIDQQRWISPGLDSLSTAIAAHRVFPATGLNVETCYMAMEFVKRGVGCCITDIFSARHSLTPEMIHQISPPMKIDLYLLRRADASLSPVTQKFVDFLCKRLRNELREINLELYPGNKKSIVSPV
T4 sequence (P07017 whole entry): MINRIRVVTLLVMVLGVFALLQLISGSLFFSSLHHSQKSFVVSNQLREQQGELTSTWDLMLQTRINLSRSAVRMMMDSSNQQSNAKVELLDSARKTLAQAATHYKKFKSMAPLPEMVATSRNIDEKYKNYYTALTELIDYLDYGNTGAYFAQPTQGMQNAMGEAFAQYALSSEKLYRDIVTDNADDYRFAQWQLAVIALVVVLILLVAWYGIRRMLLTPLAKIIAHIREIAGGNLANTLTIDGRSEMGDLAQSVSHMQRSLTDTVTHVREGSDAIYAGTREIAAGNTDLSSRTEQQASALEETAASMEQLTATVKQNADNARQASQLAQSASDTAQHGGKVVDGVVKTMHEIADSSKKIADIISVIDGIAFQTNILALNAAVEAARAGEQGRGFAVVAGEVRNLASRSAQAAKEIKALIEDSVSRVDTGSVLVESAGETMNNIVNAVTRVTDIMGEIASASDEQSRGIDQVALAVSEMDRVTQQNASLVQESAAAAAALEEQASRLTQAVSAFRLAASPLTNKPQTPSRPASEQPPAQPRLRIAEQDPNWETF
Sequence of McpU-LBD (Q88NI1 50-284): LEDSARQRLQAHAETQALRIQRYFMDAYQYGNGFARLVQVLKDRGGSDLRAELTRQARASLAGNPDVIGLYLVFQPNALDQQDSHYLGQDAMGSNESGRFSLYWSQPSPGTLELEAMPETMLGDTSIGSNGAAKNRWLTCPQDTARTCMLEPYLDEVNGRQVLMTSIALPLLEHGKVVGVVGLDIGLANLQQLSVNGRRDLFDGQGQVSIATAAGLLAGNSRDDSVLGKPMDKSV
T1 sequence (Q93PU6 whole entry): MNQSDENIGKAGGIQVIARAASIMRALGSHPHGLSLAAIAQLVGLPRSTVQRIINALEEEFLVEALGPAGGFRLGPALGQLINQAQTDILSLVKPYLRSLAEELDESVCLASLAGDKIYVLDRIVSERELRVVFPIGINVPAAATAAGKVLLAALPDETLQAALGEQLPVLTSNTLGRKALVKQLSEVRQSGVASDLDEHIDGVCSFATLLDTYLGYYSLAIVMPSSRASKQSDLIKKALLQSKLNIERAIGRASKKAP
T6 sequence (Q88D09 45-282): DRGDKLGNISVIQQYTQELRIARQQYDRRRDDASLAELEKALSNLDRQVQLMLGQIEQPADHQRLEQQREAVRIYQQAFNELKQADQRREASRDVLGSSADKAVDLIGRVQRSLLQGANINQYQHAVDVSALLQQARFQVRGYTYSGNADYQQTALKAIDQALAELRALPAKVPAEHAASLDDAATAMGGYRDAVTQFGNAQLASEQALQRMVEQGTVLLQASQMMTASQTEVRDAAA
Sequence of (UniProt A0A4D6XHN3) (A0A4D6XHN3 24-265 limits assumed): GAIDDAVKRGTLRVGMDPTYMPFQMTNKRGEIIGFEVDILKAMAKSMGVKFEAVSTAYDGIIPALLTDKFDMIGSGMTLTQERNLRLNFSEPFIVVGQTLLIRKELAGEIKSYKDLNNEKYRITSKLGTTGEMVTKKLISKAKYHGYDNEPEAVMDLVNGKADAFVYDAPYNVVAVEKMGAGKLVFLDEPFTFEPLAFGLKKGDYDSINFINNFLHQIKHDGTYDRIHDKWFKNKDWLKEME

Cc1ccccc1 [Toluene]
Kd [1]: 250 nM | width of pH range of ligand recognition ([1]; ITC): 4 pH units | pH optimum ([1]; ITC, 25°C): 6.5 | pH range of binding [1, 21]: 5.5-9.5

N#Cc1ccccc1 [Benzonitrile]
pH optimum [2]: 6.0 | pH range of binding [2, 22]: 5.0-9.0 | Kd [2, 23]: 67600 nM

C[C@H](N)C(=O)O [L-alanine]
pH optimum ([3]; 25°C): 5.5 | pH range of binding [3, 24]: 3.0-11.5 | Kd ([3]; average over the pH range 3.0 to 11.0, read-out: average dissociation constant (KD)): 1260 ± 700 nM | Kd ([3]; pH 3.0, read-out: dissociation constant (KD)): 1300 nM | width of pH range of high-affinity binding ([3]; pH 3.0 to 11.5): 8.5 pH units | Kd ([3]; pH 9.0, read-out: dissociation constant (KD)): 910 nM | Kd ([3]; pH 11.0, read-out: dissociation constant (KD)): 3900 nM | pH of optimal chemotactic responses [4]: 7.0

N[C@@H](CC(=O)O)C(=O)O [L-aspartate]
pH optimum ([5]; 25°C): 5.0 | pH range of binding ([5]; 25°C): 3.0-10.5 | pH range of binding ([5]; 25°C, listed as L-Asp): ≤ 10.5 | Kd ([5]; 25°C, pH 5.0, read-out: KD at pH optimum): 400 nM | width of pH range of high-affinity binding ([5]; pH 3.0 to 10.5): 7.5 pH units | EC50 ([6]; pH 5.5): 166 ± 20 nM | EC50 ([6]; pH 7.0): 202 ± 20 nM | EC50 ([6]; pH 8.5): 77 ± 10 nM | EC50 ([6]; pH 9.5): 141 ± 20 nM | effect on Tar-LBD monomer-dimer equilibrium [7]: shifted the equilibrium almost completely to the dimeric species | Tm of Tar-LBD thermal unfolding ([8]; pH 3.5, two transitions): 44.28 ºC and 64.51 ºC | Tm of Tar-LBD thermal unfolding ([8]; pH 5.0): 47.73 ºC | ΔH of Tar-LBD thermal unfolding ([8]; pH 5.0): 106.4 kcal/mol | Tm of Tar-LBD thermal unfolding ([8]; pH 7.0, two transitions): 36.48 ºC and 42.20 ºC | Tm of Tar-LBD thermal unfolding ([8]; pH 10.0): 35.11 ºC | ΔH of Tar-LBD thermal unfolding ([8]; pH 10.0): 98.6 kcal/mol

O=C(O)[C@]1(O)C[C@@H](O)[C@@H](O)[C@H](O)C1 [Quinate]
Kd [9]: 1220 nM | pH optimum ([9]; ITC, 25°C): 5.0 | pH range of binding [9, 21]: 3.5-11.5 | width of pH profile of binding ([9]; ITC, pH 3.5-11.5): 8 pH units

O=C(O)C(=O)Cc1c[nH]c2ccccc12 [Indole-3-pyruvic acid]
Kd [10]: 12700 nM | pH optimum ([10]; ITC, 25°C): 8.0 | pH range of binding [10, 21]: 7.5-8.0

NCCC[C@H](N)C(=O)O [L-ornithine]
Kd [11]: 660 nM

CCC(=O)O [Propionate]
width of pH range of high-affinity binding [12]: 6.5 pH units | pH optimum ([12]; 15°C): 7.0 | pH range of binding [12, 25]: 5.0-11.5 | Kd ([12]; 15°C, pH 7.0, read-out: KD at pH optimum): 33100 nM

O=C(O)CC(O)(CC(=O)O)C(=O)O [Citrate]
pH optimum [13]: 6.0 | Kd [13, 23]: 153000 nM

O=C(O)C[C@H](O)C(=O)O [L-malate]
width of pH range of high-affinity binding [14]: 4.5 pH units | pH optimum ([14]; 25°C): 6.5 | pH range of binding [14, 24]: 4.5-9.0 | Kd ([14]; 25°C, pH 6.5, read-out: KD at pH optimum): 38700 nM | pH optimum [15]: 5.5 | pH range of binding [15, 22]: 3.0-10.0 | Kd ([15]; pH 5.5, read-out: KD at pH optimum): 4000 nM | EC50 ([16]; pH 5.5): 9380 ± 1900 nM | EC50 ([16]; pH 7.0): 2180 ± 410 nM | EC50 ([16]; pH 8.5): 7660 ± 1900 nM

Nc1ncnc2[nH]cnc12 [Adenine]
pH optimum [17]: 5.0 | pH range of binding [17, 22]: 3.5-10.0 | Kd ([17]; pH 5.0, read-out: KD at pH optimum): 1680 nM

OC[C@H]1O[C@H](O[C@H]2[C@H](O)[C@@H](O)[C@H](O)O[C@@H]2CO)[C@H](O)[C@@H](O)[C@@H]1O [D-maltose]
width of pH range of ligand recognition [18]: 8.5 pH units | pH optimum ([18]; 15°C): 9.0 | pH range of binding [18, 25]: 2.5-11.0

NCCCCN [Putrescine]
Kd [19]: 700 nM | pH optimum ([19]; ITC, 25°C): 8.5 | pH range of binding [19, 21]: 4.5-11.5

B1: Tar-LBD (ligand-binding domain of the aspartate chemoreceptor Tar of E. coli) (domain or fragment, E. coli K12, UniProt P07017 31-188, looked up)
chain: SSLHHSQKSFVVSNQLREQQGELTSTWDLMLQTRINLSRSAVRMMMDSSNQQSNAKVELLDSARKTLAQAATHYKKFKSMAPLPEMVATSRNIDEKYKNYYTALTELIDYLDYGNTGAYFAQPTQGMQNAMGEAFAQYALSSEKLYRDIVTDNADDYR
notes: Cloned into the NdeI and BamHI sites of pET28b(+) and purified on a HisTrap column; In solution it is a rapidly interchanging mixture of monomer and dimer; also called E. coli Tar-LBD; LBD of the Tar chemoreceptor; source: E. coli BL21(DE3), purified (HisTrap)
stoichiometry N [20]: 2
